According to patent US11154522B2, “Compositions and methods for treating acne vulgaris” (priority 2016, dated 2021):
Like-named read-outs stand apart in the source and are kept apart here.

Test: Delivery of succinic acid to epidermis and dermis in presence of salicylic acid, Franz diffusion cells, different skin sample (Example 2)
Procedure: Skin from a single donor was stored frozen at −20° C. until needed. The skin was removed from the freezer, allowed to equilibrate to room temperature, and then cut to ˜2 cm×2 cm pieces before testing. FDCs with a 3.3 ml receiver volume and 0.55 cm^2 diffusional area were used. De-aerated isotonic phosphate buffered saline solution at pH 7.4 (PBS) containing 0.01% NaN3 was used as a solvent system for the receptor well medium (“Receptor Fluid”). Receptor wells were filled with the Receptor Fluid. The upper flange of the FDC receptor well was coated with vacuum grease to ensure a complete seal. Pieces of skin were mounted on the receptor cells, the conventional donor wells applied, and the assembly clamped together with uniform pressure using a pinch clamp. After assembly of the FDC, the skin was allowed to hydrate for 20 minutes in contact with the receptor fluid. Any FDCs that evidenced any leakage during this period were discarded. The integrity and quality of the skin was tested prior to application of the test formulations through measurement of the transdermal flux of tritiated water. Skin pieces evidencing an excessively high tritiated water flux were discarded and the tritiated water fluxes of accepted skin pieces was used to guide the distribution of formulation samples over the skin piece set. After removal of the tritiated water samples from the donor wells, the clamp and donor wells were removed. The skin was tapped dry with a KimWipe® and the receptor well solutions was replenished with fresh receptor well medium. Six replicates of each of the formulations were examined, in a batch of 36 FDC's; each test formulation was applied at a quasi-infinite dose of 20 μL cm^2 on skin maintained at 32° C. throughout the experiment. The Receptor Fluid was stirred with a magnetic stir bar throughout. A sample was abstracted from each receptor well at each of 4, 8 and 20 h, the receptor well being replenished with fresh Receptor Fluid. The concentration of succinic acid in each receptor well sample was assayed by a verified LC-MS analytical method. At the end of the experiment (20 h), residual formulation was removed from the skin exterior with a pipette. The FDCs were then be disassembled and the skin washed twice with EtOH-Water 50-50 and wiped dry with a KimWipe®. The successive topmost layers of the stratum corneum were removed by three (3) times applying cellophane tape to the skin and then pulling off the tape. Tape strippings were discarded, the material present in those peripheral layers being considered absorbed only superficially. The epidermal and dermal layers were separated, using mild heating if required. The epidermal and dermal sections were placed into 4 ml glass vials. DMSO was used as an extraction solvent (“Extraction Solvent”) for succinic acid from epidermal and dermal tissue. Two ml of the Extraction Solvent was added to each vial and the vials allowed to incubate for 24 h. At the end of the extraction period, aliquots of the Extraction Solvent were drawn, filtered and analyzed by LC-MS.
A topical formulation was prepared that contained 2% succinic acid, 1% salicylic acid (acne API), 15% ethanol, 15% propylene glycol, 3% Brij 30 and 15% of dimethyl isosorbide. The delivery of succinic to epidermis and dermis was tested as described in Example 1 in an independent experiment, using a different skin sample.

Compound: CCOCCOCCO [Transcutol P]
- enhancement of delivery of succinic acid by other penetration enhancing molecules: did not result in enhanced delivery of succinic acid

Compound: O=C(O)CCC(=O)O [succinic acid]
- succinic acid dose delivered to epidermis and dermis (human, 22 h, 2 %, pH 7.4): 33.22%
- fold lower amount delivered in absence vs presence of Brij30 and dimethyl isosorbide (human, 22 h, pH 7.4): 4.4 fold
- succinic acid dose delivered to epidermis and dermis (human, 22 h, pH 7.4): 7.51%

Compound: Capric tryiglyceride GTCC
- enhancement of delivery of succinic acid by other penetration enhancing molecules: did not result in enhanced delivery of succinic acid

Compound: Polysorbate 20
- enhancement of delivery of succinic acid by other penetration enhancing molecules (present in the formulation instead of Brij30 and dimethyl isosorbide): did not result in enhanced delivery of succinic acid

Compound: Polysorbate 80
- enhancement of delivery of succinic acid by other penetration enhancing molecules: did not result in enhanced delivery of succinic acid
